Source: ChEMBL document CHEMBL1135055, “Amide derivatives of meclofenamic acid as selective cyclooxygenase-2 inhibitors” (Bioorg Med Chem Lett, 2002)

Key:
[1] = target: T1, Prostaglandin G/H synthase 2 (Homo sapiens, UniProt P35354)
T1 sequence (P35354 whole entry): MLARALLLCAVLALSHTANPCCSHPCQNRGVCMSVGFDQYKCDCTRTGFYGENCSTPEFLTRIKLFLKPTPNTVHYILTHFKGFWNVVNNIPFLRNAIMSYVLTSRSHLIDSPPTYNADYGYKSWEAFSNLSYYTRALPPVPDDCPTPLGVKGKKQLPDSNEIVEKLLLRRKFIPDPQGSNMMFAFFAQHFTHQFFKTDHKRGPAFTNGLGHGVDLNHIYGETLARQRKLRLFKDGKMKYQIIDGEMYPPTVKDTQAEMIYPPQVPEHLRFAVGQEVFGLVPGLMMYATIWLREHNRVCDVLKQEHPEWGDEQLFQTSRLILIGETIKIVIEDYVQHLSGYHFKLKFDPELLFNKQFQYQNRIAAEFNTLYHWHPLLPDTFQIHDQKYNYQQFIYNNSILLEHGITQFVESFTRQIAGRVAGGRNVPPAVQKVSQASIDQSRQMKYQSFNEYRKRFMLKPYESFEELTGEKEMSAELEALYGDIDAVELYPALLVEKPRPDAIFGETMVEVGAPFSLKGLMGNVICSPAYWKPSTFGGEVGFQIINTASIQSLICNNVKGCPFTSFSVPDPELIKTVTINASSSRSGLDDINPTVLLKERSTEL
Description: Inhibition of the human Prostaglandin G/H synthase 2 was determined by thin-layer chromatography assay

[2] = target: T2, Prostaglandin G/H synthase 1 (Ovis aries, UniProt P05979); assay: Inhibition of the ovine Prostaglandin G/H synthase 1 was determined by thin-layer chromatography assay
T2 sequence (P05979 whole entry): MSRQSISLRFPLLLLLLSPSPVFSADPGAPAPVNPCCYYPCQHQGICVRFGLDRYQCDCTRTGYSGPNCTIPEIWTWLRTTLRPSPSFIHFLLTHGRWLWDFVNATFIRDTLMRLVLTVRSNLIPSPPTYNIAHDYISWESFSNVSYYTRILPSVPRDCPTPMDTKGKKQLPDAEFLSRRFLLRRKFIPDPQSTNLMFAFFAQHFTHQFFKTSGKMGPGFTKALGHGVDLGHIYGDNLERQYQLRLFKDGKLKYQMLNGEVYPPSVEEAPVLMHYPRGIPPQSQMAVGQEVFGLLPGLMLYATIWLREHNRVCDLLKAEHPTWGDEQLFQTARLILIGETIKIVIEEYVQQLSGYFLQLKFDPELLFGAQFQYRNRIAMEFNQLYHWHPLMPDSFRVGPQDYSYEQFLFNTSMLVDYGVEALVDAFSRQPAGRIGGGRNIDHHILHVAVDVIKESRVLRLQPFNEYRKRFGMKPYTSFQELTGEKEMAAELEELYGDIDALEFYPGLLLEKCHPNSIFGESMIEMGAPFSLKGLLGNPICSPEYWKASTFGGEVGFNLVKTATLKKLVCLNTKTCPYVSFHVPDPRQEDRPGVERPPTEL

[3] = Inhibitory concentration against prostaglandin E2
[4] = target: T3, Prostaglandin G/H synthase 2 (Mus musculus, UniProt Q05769, R106A)
T3 sequence (Q05769 18-604 R106A limits assumed): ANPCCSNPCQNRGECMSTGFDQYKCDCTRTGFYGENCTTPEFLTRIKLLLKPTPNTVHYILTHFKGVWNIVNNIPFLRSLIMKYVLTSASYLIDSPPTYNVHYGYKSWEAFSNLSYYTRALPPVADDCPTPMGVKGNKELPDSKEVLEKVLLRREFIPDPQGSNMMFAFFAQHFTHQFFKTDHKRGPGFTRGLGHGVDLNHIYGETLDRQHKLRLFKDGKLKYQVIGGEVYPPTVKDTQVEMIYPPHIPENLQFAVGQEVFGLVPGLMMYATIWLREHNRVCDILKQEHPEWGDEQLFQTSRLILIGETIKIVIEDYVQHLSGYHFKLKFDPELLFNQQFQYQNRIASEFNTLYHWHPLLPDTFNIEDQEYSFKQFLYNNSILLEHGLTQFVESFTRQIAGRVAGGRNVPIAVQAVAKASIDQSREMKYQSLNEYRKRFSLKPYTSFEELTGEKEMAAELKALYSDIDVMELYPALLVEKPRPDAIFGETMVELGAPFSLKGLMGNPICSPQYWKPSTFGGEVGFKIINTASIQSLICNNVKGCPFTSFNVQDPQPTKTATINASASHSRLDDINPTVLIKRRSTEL
Description: Inhibition of the Arg120Ala murine COX-2 mutant enzyme

[5] = target: T4, Prostaglandin G/H synthase 2 (Mus musculus, UniProt Q05769); assay: Inhibition of the murine wild type Prostaglandin G/H synthase 2
T4 sequence (Q05769 whole entry): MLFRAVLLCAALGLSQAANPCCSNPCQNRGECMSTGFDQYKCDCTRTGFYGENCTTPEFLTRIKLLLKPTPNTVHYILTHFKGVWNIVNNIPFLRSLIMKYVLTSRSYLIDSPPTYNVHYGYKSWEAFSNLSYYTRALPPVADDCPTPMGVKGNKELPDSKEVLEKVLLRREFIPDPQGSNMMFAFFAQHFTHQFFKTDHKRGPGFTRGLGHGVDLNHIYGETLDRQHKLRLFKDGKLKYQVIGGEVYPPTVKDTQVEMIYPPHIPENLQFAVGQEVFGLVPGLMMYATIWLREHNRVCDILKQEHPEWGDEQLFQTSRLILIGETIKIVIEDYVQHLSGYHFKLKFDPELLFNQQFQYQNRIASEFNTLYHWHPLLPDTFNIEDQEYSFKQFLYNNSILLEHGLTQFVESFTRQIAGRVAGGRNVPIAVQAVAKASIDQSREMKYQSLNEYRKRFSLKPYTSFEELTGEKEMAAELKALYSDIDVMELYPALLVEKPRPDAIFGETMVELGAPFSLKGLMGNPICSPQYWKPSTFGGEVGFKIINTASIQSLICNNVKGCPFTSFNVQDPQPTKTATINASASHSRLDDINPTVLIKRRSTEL

[6] = target: T3, Prostaglandin G/H synthase 2; assay: Inhibition of the murine Arg120Ala mutant type COX-2

SMILES	IC50 [1]	IC50 [2]	IC50 [5]	IC50 [6]	IC50 [3]	IC50 [4]
Cc1ccc(Cl)c(Nc2ccccc2C(=O)NNCc2ccccc2)c1Cl	6300 nM	5000 nM				
Cc1ccc(Cl)c(Nc2ccccc2C(=O)NOC(C)(C)C)c1Cl	66000 nM	8000 nM				
CCOC(=O)CNC(=O)c1ccccc1Nc1c(Cl)ccc(C)c1Cl	4000 nM	200 nM				
Cc1ccc(Cl)c(Nc2ccccc2C(=O)NOCc2ccccc2)c1Cl	66000 nM	1000 nM				
Cc1ccc(Cl)c(Nc2ccccc2C(=O)NCCOc2ccccc2)c1Cl	66000 nM	150 nM			1800 nM	550 nM
CNC(=O)c1ccccc1Nc1c(Cl)ccc(C)c1Cl	> 2000 nM	> 2000 nM				
Cc1ccc(Cl)c(Nc2ccccc2C(=O)N[C@H](C)C(=O)O)c1Cl	> 33000 nM	8000 nM				
COC(=O)[C@@H](C)NC(=O)c1ccccc1Nc1c(Cl)ccc(C)c1Cl	6000 nM	2700 nM				
CONC(=O)c1ccccc1Nc1c(Cl)ccc(C)c1Cl	55000 nM	500 nM				
Cc1ccc(Cl)c(Nc2ccccc2C(=O)NOCc2ccc([N+](=O)[O-])cc2)c1Cl	66000 nM	200 nM				
CC(=O)Nc1ccc(OC(=O)c2ccccc2Nc2c(Cl)ccc(C)c2Cl)cc1	> 20000 nM	> 20000 nM				
COCCCNC(=O)c1ccccc1Nc1c(Cl)ccc(C)c1Cl	11000 nM	250 nM				
COC(=O)c1ccccc1Nc1c(Cl)ccc(C)c1Cl	4000 nM	17000 nM				
Cc1ccc(Cl)c(Nc2ccccc2C(=O)N[C@@H](C)C(=O)O)c1Cl	33000 nM	6000 nM				

Continued, in another order:

IC50 [1]	IC50 [2]	IC50 [5]	IC50 [6]	SMILES	IC50 [3]	IC50 [4]
60 nM	50 nM			CCCCCCCCNC(=O)c1ccccc1Nc1c(Cl)ccc(C)c1Cl		
1200 nM	70 nM			COC(=O)CNC(=O)c1ccccc1Nc1c(Cl)ccc(C)c1Cl		
4000 nM	4500 nM			Cc1ccc(Cl)c(Nc2ccccc2C(=O)NCCc2ccccc2)c1Cl		
1000 nM	600 nM			Cc1ccc(Cl)c(Nc2ccccc2C(=O)NCCO)c1Cl		
2600 nM	800 nM			COC(=O)[C@H](C)NC(=O)c1ccccc1Nc1c(Cl)ccc(C)c1Cl		
300 nM	400 nM			Cc1ccc(Cl)c(Nc2ccccc2C(=O)NCC(=O)O)c1Cl		
3000 nM	140 nM			COCCNC(=O)c1ccccc1Nc1c(Cl)ccc(C)c1Cl		
2000 nM	70 nM			Cc1ccc(Cl)c(Nc2ccccc2C(=O)NCCBr)c1Cl		
40 nM	50 nM	200 nM	400 nM	Cc1ccc(Cl)c(Nc2ccccc2C(=O)O)c1Cl [MECLOFENAMIC ACID]		
2400 nM	60 nM			Cc1ccc(Cl)c(Nc2ccccc2C(=O)NCCCCl)c1Cl		
